# Source: publication PMC3923778 (PLoS Currents, 2014)
# Entries after “also recorded” stand apart in the source; their conditions may differ.
# Legend:
# R6/2 hippocampal slices = experiment: Electrophysiological evaluation in R6/2 hippocampal slices (MEA, fEPSP); design: species or system mouse
# Description: Electrophysiology was conducted at Neuroservice SARL, France. All animals were group housed under environmentaly enriched conditions and used in accordance with European legislations for animal care. On the day of recording, 7-8 week old R6/2 or wild type littermate (WT) mice were decapitated without anaesthesia followed by rapid brain removal into ice-cold oxygenated buffer (in mM; saccharose, 250, KCl 2, NaH2PO4 1.2, MgCl2 7, CaCl2 0.5, NaHCO3 26, glucose 11). Hippocampal slices (350 μm thickness) were prepared with a MacIlwain tissue-chopper and incubated at room temperature (RT, 18 – 22 °C) and allowed to recover for at least 1 h prior to recording in oxygenated Artificial Cerebro-Spinal Fluid (ACSF) of the following composition: (in mM; NaCl, 126, KCl 3.5, NaH2PO4 1.2, MgCl2 1.3, CaCl2 2, NaHCO3 25, D-glucose 11, pH 7.2). For experiments, individual slices were transferred to a 3-dimensional 60 electrode MEA chip (Ayanda Biosystems, Lausanne, Switzerland) and continuously perfused with oxygenated (95% O2–5% CO2) ACSF at 37 °C at a rate of 3 mlmin^-1, allowing for complete solution exchange within the MEA chamber 20 s following solution switches (MEA chamber volume: ~1 mL).
# For stimulation, one MEA electrode underlying the Schaeffer collaterals at the CA3/CA1 interface was chosen visually as the stimulating electrode. The stimulus consisted of a monopolar biphasic current pulse (negative for 60 μs and then positive for 60 μs) applied at a frequency of 0.03 Hz. Recordings of resultant field excitatory postsynaptic potentials (fEPSPs) from electrodes underlying the CA1 region were made using MultiChannel Systems MCS GmbH software (MC Stim, MS Rack) and hardware composed of a 4-channel stimulus generator and a 60-channel amplifier head-stage connected to a 60-channel A/D card (Reutlingen, Germany). […] Paired pulse facilitation (PPF) was then assessed at 40 % of the maximal fEPSP amplitude response (as defined from the I/O curve) by delivering two pulses to the stimulating electrode with decreasing inter-stimulus intervals (ISI of 300 ms, 200 ms, 100 ms, 50 ms, 25 ms). PPF was performed 4 times per slice, and the resultant 4 fEPSP amplitudes at a given ISI were averaged together. […]
# For measurement of long term potentiation (LTP), basal fEPSPs were recorded at 0.03 Hz for ten minutes at 40 % of maximal FEPSP amplitude to verify the baseline stability. […] Potentiation of fEPSP amplitude was then monitored for an additional 60 minute period. […]
# For each slice, the fEPSP values at each electrode recorded within the CA1 region were averaged to obtain a single fEPSP value per slice per timepoint. […] Data was analysed using Repeat Measure Two-way ANOVA followed by a post hoc Bonferroni test to analyse statistical significance of single data points using Prism 5.0 software. […]
# R6/2 mice = experiment: Rear Climbing Test; assay type: in vivo, mouse; conditions: for Rear Climbing Test Rearing Frequency: p vs Vehicle-treated R6/2 mice / Rear Climbing Test Climbing Instances: p vs Vehicle-treated R6/2 mice / Rear Climbing Test Latency to Climb: p vs Vehicle-treated R6/2 mice / Rear Climbing Test Time Spent Climbing: p vs Vehicle-treated R6/2 mice: BID
# Description: Motor function testing including open field and rear climbing tests were commenced at 4 weeks of age and continued at weeks 6, 8 and 12, for grip strength test at age weeks 4 and 12 and for rotarod at age weeks 4, 6 and 8. Compound treatment was started at 4 weeks of age after the baseline behavioral tests.
# Rear climbing test was performed at age weeks 4, 6, 8 and 12. The mice were tested on Tuesdays. Each animal was placed into custom made pencil holder, and was scored for 5 minutes. During this period the following events were noted: 1) number of times the mouse rears without touching the mesh walls, 2) latency to climb (lifting 4 paws from the floor is labeled climbing), 3) climbing time, and 4) climbing instances.
# All values are presented as mean ± Standard Error of Mean (SEM), and differences are considered to be statistically significant at the p < 0.05 level. Statistical analysis was performed using StatsDirect statistical software. Differences between group means were analyzed by 1-way-ANOVA followed by Dunnett’s test (comparison to the control (=vehicle treated TG mice) group). The acquisition of the Cued two-choice swim test was analyzed using Fisher’s exact test.
# [1] = Age Week 4, 10 mg/kg p.o., ANOVA
# [2] = Age Week 4, 30 mg/kg p.o., ANOVA
# [3] = Age Week 6, 10 mg/kg p.o., ANOVA
# [4] = Age Week 6, 30 mg/kg p.o., ANOVA
# [5] = Age Week 8, 10 mg/kg p.o., ANOVA
# [6] = Age Week 8, 30 mg/kg p.o., ANOVA
# [7] = Age Week 12, 10 mg/kg p.o., ANOVA
# [8] = Age Week 12, 30 mg/kg p.o., ANOVA
smiles,measurement,setting,value
"CN1C(=O)c2nc(Cc3ccc(C(F)(F)F)cc3)[nH]c2N2C1=N[C@H]1CCC[C@H]12 [SCH-51866, (+)-cis-5,6a,7,8,9,9a-hexahydro-2-[4-[trifluro-methyl]phenylmethyl]-5-methyl-cylopent[4,5]imidazo [2,1-b]purin-4(3H)one]",basal synaptic transmission (input/output characteristics),"R6/2 hippocampal slices; 3 µM, R6/2 slices",no significant effect; also recorded: did not significantly reduce
same,paired pulse facilitation (PPF),"R6/2 hippocampal slices; 3 µM, R6/2 slices",restored R6/2 paired-pulse facilitation (PPF) to WT levels; also recorded: significantly restored to WT levels
same,long-term potentiation (LTP),"R6/2 hippocampal slices; 3 µM, R6/2 slices, vs ACSF alone",did not restore the deficit; also recorded: did not result in an amplitude of LTP significantly different
same,"electrophysiological parameters in hippocampal slices, overall",R6/2 hippocampal slices; concentration sufficient to fully inhibit the PDE1 enzyme,does not improve
same,Rear Climbing Test Rearing Frequency: p vs Vehicle-treated R6/2 mice,"R6/2 mice; Age Week 4, 10 mg/kg p.o.",p=0.507
same,Rear Climbing Test Climbing Instances: p vs Vehicle-treated R6/2 mice,R6/2 mice; [1],ANOVA: p=0.484
same,Rear Climbing Test Latency to Climb: p vs Vehicle-treated R6/2 mice,R6/2 mice; [1],ANOVA: p=0.365
same,Rear Climbing Test Time Spent Climbing: p vs Vehicle-treated R6/2 mice,R6/2 mice; [1],ANOVA: p=0.853
same,Rear Climbing Test Rearing Frequency: p vs Vehicle-treated R6/2 mice,"R6/2 mice; Age Week 4, 30 mg/kg p.o.",p=0.186
same,Rear Climbing Test Climbing Instances: p vs Vehicle-treated R6/2 mice,R6/2 mice; [2],ANOVA: p=0.484
same,Rear Climbing Test Latency to Climb: p vs Vehicle-treated R6/2 mice,R6/2 mice; [2],ANOVA: p=0.365
same,Rear Climbing Test Time Spent Climbing: p vs Vehicle-treated R6/2 mice,R6/2 mice; [2],ANOVA: p=0.853
same,Rear Climbing Test Climbing Instances: p vs Vehicle-treated R6/2 mice,R6/2 mice; [3],ANOVA: p=0.120
same,Rear Climbing Test Latency to Climb: p vs Vehicle-treated R6/2 mice,R6/2 mice; [3],ANOVA: p=0.257
same,Rear Climbing Test Rearing Frequency: p vs Vehicle-treated R6/2 mice,R6/2 mice; [3],ANOVA: p=0.203
same,Rear Climbing Test Time Spent Climbing: p vs Vehicle-treated R6/2 mice,R6/2 mice; [3],ANOVA: p=0.291
same,Rear Climbing Test Climbing Instances: p vs Vehicle-treated R6/2 mice,R6/2 mice; [4],ANOVA: p=0.120
same,Rear Climbing Test Latency to Climb: p vs Vehicle-treated R6/2 mice,R6/2 mice; [4],ANOVA: p=0.257
same,Rear Climbing Test Rearing Frequency: p vs Vehicle-treated R6/2 mice,R6/2 mice; [4],ANOVA: p=0.203
same,Rear Climbing Test Time Spent Climbing: p vs Vehicle-treated R6/2 mice,R6/2 mice; [4],ANOVA: p=0.291
same,Rear Climbing Test Climbing Instances: p vs Vehicle-treated R6/2 mice,R6/2 mice; [5],ANOVA: p=0.166
same,Rear Climbing Test Latency to Climb: p vs Vehicle-treated R6/2 mice,R6/2 mice; [5],ANOVA: p=0.193
same,Rear Climbing Test Rearing Frequency: p vs Vehicle-treated R6/2 mice,R6/2 mice; [5],ANOVA: p=0.782
same,Rear Climbing Test Time Spent Climbing: p vs Vehicle-treated R6/2 mice,R6/2 mice; [5],ANOVA: p=0.750
same,Rear Climbing Test Climbing Instances: p vs Vehicle-treated R6/2 mice,R6/2 mice; [6],ANOVA: p=0.166
same,Rear Climbing Test Latency to Climb: p vs Vehicle-treated R6/2 mice,R6/2 mice; [6],ANOVA: p=0.193
same,Rear Climbing Test Rearing Frequency: p vs Vehicle-treated R6/2 mice,R6/2 mice; [6],ANOVA: p=0.782
same,Rear Climbing Test Time Spent Climbing: p vs Vehicle-treated R6/2 mice,R6/2 mice; [6],ANOVA: p=0.750
same,Rear Climbing Test Climbing Instances: p vs Vehicle-treated R6/2 mice,R6/2 mice; [7],ANOVA: p=0.671
same,Rear Climbing Test Latency to Climb: p vs Vehicle-treated R6/2 mice,R6/2 mice; [7],ANOVA: p=0.846
same,Rear Climbing Test Rearing Frequency: p vs Vehicle-treated R6/2 mice,R6/2 mice; [7],ANOVA: p=0.122
same,Rear Climbing Test Time Spent Climbing: p vs Vehicle-treated R6/2 mice,R6/2 mice; [7],ANOVA: p=0.724
same,Rear Climbing Test Climbing Instances: p vs Vehicle-treated R6/2 mice,R6/2 mice; [8],ANOVA: p=0.671
same,Rear Climbing Test Latency to Climb: p vs Vehicle-treated R6/2 mice,R6/2 mice; [8],ANOVA: p=0.846
same,Rear Climbing Test Rearing Frequency: p vs Vehicle-treated R6/2 mice,R6/2 mice; [8],ANOVA: p=0.122
same,Rear Climbing Test Time Spent Climbing: p vs Vehicle-treated R6/2 mice,R6/2 mice; [8],ANOVA: p=0.724
same,"rearing frequency and latency to climb a custom-made pencil holder, effect in words",R6/2 mice; chronic administration in R6/2 mice,no improvement
